Data taken from patent publication US20220169632A1, “METHODS AND MATERIALS FOR INCREASING OR MAINTAINING NICOTINAMIDE MONONUCLEOTIDE ADENYLYL TRANSFERASE-2 (NMNAT2) POLYPEPTIDE LEVELS” (University of Pittsburgh - Of the Commonwealth System of …, priority 2019, published 2022).

Tested on: NMNAT2
Assay: NMNAT2-Hibit nano-luciferase activity in stably transfected U87MG cells, various concentrations, 24 hours
Assay type: cell-based
Details: U87MG cells stably transfected with NMNAT2-Hibit luc plasmid
Method: Selected compounds were tested in vitro. U87MG cells were stably transfected with NMNAT2-Hibit luc plasmid. Cells were treated with a test compound at various concentrations for 24 hours. Cells were then collected and assayed for nano-luciferase activity.

CC(Cc1ccco1)NC(=O)Cn1cc(C(=O)c2ccc(Cl)cc2)c2ccccc21 (centres unmarked) [BC20214]
E: compound efficacy for NMNAT2 activation (concentration giving >25% increase in NMNAT2 luciferase activity): + (“+” >25% increase in NMNAT2 luciferase activity at >25 μM.)

O=C(CCCc1cn(Cc2cccc(F)c2)c2ccccc12)NCc1cccnc1 [BC20147]
E: compound efficacy for NMNAT2 activation (concentration giving >25% increase in NMNAT2 luciferase activity): ++ (“++” >25% increase in NMNAT2 luciferase activity at >1 μM ≤25 μM.)

Cc1ccc(CNC(=O)Cn2cc(C(=O)c3ccc(Cl)cc3)c3ccccc32)o1 [BC20176]
E: compound efficacy for NMNAT2 activation (concentration giving >25% increase in NMNAT2 luciferase activity): ++ (“++” >25% increase in NMNAT2 luciferase activity at >1 μM ≤25 μM.)

COc1ccccc1CNC(=O)c1ccc2c(c1)c(C)c(C)n2Cc1cccc(F)c1 [BC20115]
E: compound efficacy for NMNAT2 activation (concentration giving >25% increase in NMNAT2 luciferase activity): ++ (“++” >25% increase in NMNAT2 luciferase activity at >1 μM ≤25 μM.)

O=C(Nc1cc(F)ccc1F)N1CCc2c(c3ccccc3n2Cc2cccc(F)c2)C1 [BC20361]
E: compound efficacy for NMNAT2 activation (concentration giving >25% increase in NMNAT2 luciferase activity): ++ (“++” >25% increase in NMNAT2 luciferase activity at >1 μM ≤25 μM.)

Cc1ccc(C)c(Cn2c(C(F)F)c(CCC(=O)NCc3ccc(C)o3)c3ccccc32)c1 [BC20367]
E: compound efficacy for NMNAT2 activation (concentration giving >25% increase in NMNAT2 luciferase activity): ++ (“++” >25% increase in NMNAT2 luciferase activity at >1 μM ≤25 μM.)

Cc1ccc(C)c(Cn2c(C)c([C@H]3C[C@@H]3C(=O)NCCc3ccccc3)c3ccccc32)c1 (racemic) [BC20326]
E: compound efficacy for NMNAT2 activation (concentration giving >25% increase in NMNAT2 luciferase activity): ++ (“++” >25% increase in NMNAT2 luciferase activity at >1 μM ≤25 μM.)

Cc1ccc(C)c(Cn2c3c(c4ccccc42)CC(C(=O)NCc2ccco2)CC3)c1 (centres unmarked) [BC20102]
E: compound efficacy for NMNAT2 activation (concentration giving >25% increase in NMNAT2 luciferase activity): ++ (“++” >25% increase in NMNAT2 luciferase activity at >1 μM ≤25 μM.)

Cc1ccc(Cn2cc(C3=CC(=O)NCC3)c3ccccc32)cc1 [BC20191]
E: compound efficacy for NMNAT2 activation (concentration giving >25% increase in NMNAT2 luciferase activity): ++ (“++” >25% increase in NMNAT2 luciferase activity at >1 μM ≤25 μM.)

Cc1ccccc1Cn1cc(CCCC(=O)NCc2ccccc2F)c2ccccc21 [BC20151]
E: compound efficacy for NMNAT2 activation (concentration giving >25% increase in NMNAT2 luciferase activity): ++ (“++” >25% increase in NMNAT2 luciferase activity at >1 μM ≤25 μM.)

Cc1ccccc1CNC(=O)c1ccc2c(c1)c(C)c(C)n2Cc1ccccc1F [BC20105]
E: compound efficacy for NMNAT2 activation (concentration giving >25% increase in NMNAT2 luciferase activity): ++ (“++” >25% increase in NMNAT2 luciferase activity at >1 μM ≤25 μM.)

O=C(NCC1CCCO1)N1CCc2c(c3ccccc3n2Cc2ccncc2)C1 (centres unmarked) [BC20358]
E: compound efficacy for NMNAT2 activation (concentration giving >25% increase in NMNAT2 luciferase activity): + (“+” >25% increase in NMNAT2 luciferase activity at >25 μM.)

COc1ccc(CNC(=O)N2CCc3c(c4ccccc4n3Cc3ccncc3)C2)cc1 [BC20338]
E: compound efficacy for NMNAT2 activation (concentration giving >25% increase in NMNAT2 luciferase activity): + (“+” >25% increase in NMNAT2 luciferase activity at >25 μM.)

Cc1ccccc1CNC(=O)CCCc1cn(Cc2ccccc2F)c2ccccc12 [BC20125]
E: compound efficacy for NMNAT2 activation (concentration giving >25% increase in NMNAT2 luciferase activity): ++ (“++” >25% increase in NMNAT2 luciferase activity at >1 μM ≤25 μM.)

COc1cccc(CNC(=O)Cn2c3c(c4ccccc42)CC(C(=O)NCc2ccco2)CC3)c1 (centres unmarked) [BC20290]
E: compound efficacy for NMNAT2 activation (concentration giving >25% increase in NMNAT2 luciferase activity): + (“+” >25% increase in NMNAT2 luciferase activity at >25 μM.)

Cc1ccc(Cn2c3c(c4ccccc42)C(C(=O)NCc2ccco2)CCC3)cc1 (centres unmarked) [BC20383]
E: compound efficacy for NMNAT2 activation (concentration giving >25% increase in NMNAT2 luciferase activity): + (“+” >25% increase in NMNAT2 luciferase activity at >25 μM.)

Cc1ccccc1CNC(=O)Cn1cc(C(=O)c2ccc(Cl)cc2)c2ccccc21 [BC20178]
E: compound efficacy for NMNAT2 activation (concentration giving >25% increase in NMNAT2 luciferase activity): ++ (“++” >25% increase in NMNAT2 luciferase activity at >1 μM ≤25 μM.)

Cc1ccc(C)c(Cn2c3c(c4ccccc42)CC(C(=O)NCc2cccc(F)c2)CC3)c1 (centres unmarked) [BC20184]
E: compound efficacy for NMNAT2 activation (concentration giving >25% increase in NMNAT2 luciferase activity): + (“+” >25% increase in NMNAT2 luciferase activity at >25 μM.)

O=C(NCc1ccco1)C1CCCc2c1c1ccccc1n2Cc1cccc(F)c1 (centres unmarked) [BC20368]
E: compound efficacy for NMNAT2 activation (concentration giving >25% increase in NMNAT2 luciferase activity): ++ (“++” >25% increase in NMNAT2 luciferase activity at >1 μM ≤25 μM.)

Cc1ccc(CNC(=O)c2ccc3c(c2)c(C)c(C)n3Cc2ccccc2F)o1 [BC20193]
E: compound efficacy for NMNAT2 activation (concentration giving >25% increase in NMNAT2 luciferase activity): + (“+” >25% increase in NMNAT2 luciferase activity at >25 μM.)

Cc1cccc(CNC(=O)Cn2cc(C(=O)c3ccc(Cl)cc3)c3ccccc32)c1 [BC20179]
E: compound efficacy for NMNAT2 activation (concentration giving >25% increase in NMNAT2 luciferase activity): ++ (“++” >25% increase in NMNAT2 luciferase activity at >1 μM ≤25 μM.)

O=C(NCc1ccncc1)C1CCCc2c1c1ccccc1n2Cc1cccc(F)c1 (centres unmarked) [BC20380]
E: compound efficacy for NMNAT2 activation (concentration giving >25% increase in NMNAT2 luciferase activity): + (“+” >25% increase in NMNAT2 luciferase activity at >25 μM.)

O=C(NCCc1ccccc1)C1CCc2c(c3ccccc3n2Cc2ccncc2)C1 (centres unmarked) [BC20284]
E: compound efficacy for NMNAT2 activation (concentration giving >25% increase in NMNAT2 luciferase activity): + (“+” >25% increase in NMNAT2 luciferase activity at >25 μM.)

Cc1ccccc1CNC(=O)CCCc1cn(Cc2ccccc2C)c2ccccc12 [BC20153]
E: compound efficacy for NMNAT2 activation (concentration giving >25% increase in NMNAT2 luciferase activity): ++ (“++” >25% increase in NMNAT2 luciferase activity at >1 μM ≤25 μM.)

Cc1ccc(C)c(Cn2c(C(F)F)c(CCC(=O)NCCc3ccccc3)c3ccccc32)c1 [BC20402]
E: compound efficacy for NMNAT2 activation (concentration giving >25% increase in NMNAT2 luciferase activity): ++ (“++” >25% increase in NMNAT2 luciferase activity at >1 μM ≤25 μM.)

Cc1cccc(CN2CCc3cn(Cc4cccc(F)c4)c4cccc(c34)C2=O)c1 [BC20276]
E: compound efficacy for NMNAT2 activation (concentration giving >25% increase in NMNAT2 luciferase activity): + (“+” >25% increase in NMNAT2 luciferase activity at >25 μM.)

O=C1c2cccc3c2c(cn3Cc2cccc(F)c2)CCN1CCOc1ccc(F)cc1 [BC20342]
E: compound efficacy for NMNAT2 activation (concentration giving >25% increase in NMNAT2 luciferase activity): + (“+” >25% increase in NMNAT2 luciferase activity at >25 μM.)

CC(Cc1ccco1)NC(=O)CCCc1cn(Cc2ccccc2F)c2ccccc12 (centres unmarked) [BC20130]
E: compound efficacy for NMNAT2 activation (concentration giving >25% increase in NMNAT2 luciferase activity): ++ (“++” >25% increase in NMNAT2 luciferase activity at >1 μM ≤25 μM.)

Cc1ccc(C)c(Cn2c(C(F)F)c(CCC(=O)NCc3cccc(F)c3)c3ccccc32)c1 [BC20394]
E: compound efficacy for NMNAT2 activation (concentration giving >25% increase in NMNAT2 luciferase activity): + (“+” >25% increase in NMNAT2 luciferase activity at >25 μM.)

O=C(NCCc1ccccc1)C1CCCc2c1c1ccccc1n2Cc1cccc(F)c1 (centres unmarked) [BC20378]
E: compound efficacy for NMNAT2 activation (concentration giving >25% increase in NMNAT2 luciferase activity): ++ (“++” >25% increase in NMNAT2 luciferase activity at >1 μM ≤25 μM.)

Cc1c(C)n(Cc2ccccc2F)c2ccc(C(=O)N3CCc4occc4C3)cc12 [BC20247]
E: compound efficacy for NMNAT2 activation (concentration giving >25% increase in NMNAT2 luciferase activity): + (“+” >25% increase in NMNAT2 luciferase activity at >25 μM.)

Cc1c(C)n(Cc2ccccc2F)c2ccc(C(=O)NCc3cccnc3)cc12 [BC20108]
E: compound efficacy for NMNAT2 activation (concentration giving >25% increase in NMNAT2 luciferase activity): +++ (“+++” >25% increase in NMNAT2 luciferase activity at ≤1 μM.)

Cc1c(C)n(Cc2cccc(F)c2)c2ccc(C(=O)NC(C)Cc3ccco3)cc12 (centres unmarked) [BC20118]
E: compound efficacy for NMNAT2 activation (concentration giving >25% increase in NMNAT2 luciferase activity): ++ (“++” >25% increase in NMNAT2 luciferase activity at >1 μM ≤25 μM.)

Cc1ccc(CNC(=O)C2CCc3c(c4ccccc4n3Cc3cccc(F)c3)C2)o1 (centres unmarked) [BC20221]
E: compound efficacy for NMNAT2 activation (concentration giving >25% increase in NMNAT2 luciferase activity): + (“+” >25% increase in NMNAT2 luciferase activity at >25 μM.)

Cc1ccc(C)c(Cn2c3c(c4ccccc42)CN(C(=O)NCC2CCCO2)CC3)c1 (centres unmarked) [BC20252]
E: compound efficacy for NMNAT2 activation (concentration giving >25% increase in NMNAT2 luciferase activity): + (“+” >25% increase in NMNAT2 luciferase activity at >25 μM.)

COc1ccccc1CNC(=O)CCCc1cn(Cc2cccc(C)c2)c2ccccc12 [BC20213]
E: compound efficacy for NMNAT2 activation (concentration giving >25% increase in NMNAT2 luciferase activity): ++ (“++” >25% increase in NMNAT2 luciferase activity at >1 μM ≤25 μM.)

Cc1ccc(C)c(Cn2cc([C@H]3C[C@@H]3C(=O)NCc3ccc(C)o3)c3ccccc32)c1 (racemic) [BC20345]
E: compound efficacy for NMNAT2 activation (concentration giving >25% increase in NMNAT2 luciferase activity): + (“+” >25% increase in NMNAT2 luciferase activity at >25 μM.)

Cc1ccc(Cn2cc(C3CCN(Cc4ccncc4)C(=O)C3)c3ccccc32)cc1 (centres unmarked) [BC20267]
E: compound efficacy for NMNAT2 activation (concentration giving >25% increase in NMNAT2 luciferase activity): ++ (“++” >25% increase in NMNAT2 luciferase activity at >1 μM ≤25 μM.)

Cc1ccccc1CNC(=O)C1CCc2c(c3ccccc3n2CC(=O)NCc2ccco2)C1 (centres unmarked) [BC20238]
E: compound efficacy for NMNAT2 activation (concentration giving >25% increase in NMNAT2 luciferase activity): ++ (“++” >25% increase in NMNAT2 luciferase activity at >1 μM ≤25 μM.)

Cc1cccc(Cn2cc(CCCC(=O)NCc3ccncc3)c3ccccc32)c1 [BC20174]
E: compound efficacy for NMNAT2 activation (concentration giving >25% increase in NMNAT2 luciferase activity): ++ (“++” >25% increase in NMNAT2 luciferase activity at >1 μM ≤25 μM.)

Cc1ccccc1Cn1cc(CCCC(=O)NCc2ccncc2)c2ccccc21 [BC20160]
E: compound efficacy for NMNAT2 activation (concentration giving >25% increase in NMNAT2 luciferase activity): ++ (“++” >25% increase in NMNAT2 luciferase activity at >1 μM ≤25 μM.)

COc1cccc(CNC(=O)CCCc2cn(Cc3ccccc3F)c3ccccc23)c1 [BC20128]
E: compound efficacy for NMNAT2 activation (concentration giving >25% increase in NMNAT2 luciferase activity): ++ (“++” >25% increase in NMNAT2 luciferase activity at >1 μM ≤25 μM.)

CCCCN(CC)Cc1ccc(CNC(=O)C2CCc3c(c4ccccc4n3Cc3cccc(F)c3)C2)o1 (centres unmarked) [BC20259]
E: compound efficacy for NMNAT2 activation (concentration giving >25% increase in NMNAT2 luciferase activity): +++ (“+++” >25% increase in NMNAT2 luciferase activity at ≤1 μM.)

Cc1ccccc1CNC(=O)CCCc1cn(Cc2cccc(F)c2)c2ccccc12 [BC20140]
E: compound efficacy for NMNAT2 activation (concentration giving >25% increase in NMNAT2 luciferase activity): + (“+” >25% increase in NMNAT2 luciferase activity at >25 μM.)

O=C(NCc1ccco1)N1CCc2c(c3ccccc3n2Cc2ccncc2)C1 [BC20357]
E: compound efficacy for NMNAT2 activation (concentration giving >25% increase in NMNAT2 luciferase activity): ++ (“++” >25% increase in NMNAT2 luciferase activity at >1 μM ≤25 μM.)

Cc1ccc(C)c(Cn2c3c(c4ccccc42)CN(C(=O)NCCc2ccccc2)CC3)c1 [BC20254]
E: compound efficacy for NMNAT2 activation (concentration giving >25% increase in NMNAT2 luciferase activity): ++ (“++” >25% increase in NMNAT2 luciferase activity at >1 μM ≤25 μM.)

Cc1ccc(C)c(Cn2cc([C@H]3C[C@@H]3C(=O)NCc3ccccc3C)c3ccccc32)c1 (racemic) [BC20347]
E: compound efficacy for NMNAT2 activation (concentration giving >25% increase in NMNAT2 luciferase activity): ++ (“++” >25% increase in NMNAT2 luciferase activity at >1 μM ≤25 μM.)
